Reference: US20230295157A1, “3-(1H-IMIDAZOL-2-YL)-2,3,8,8A-TETRAHYDROINDOLIZIN-5(1H)-ONE DERIVATIVES USEFUL AS FACTOR XIA INHIBITORS” (JANSSEN PHARMACEUTICA NV, priority 2020, published 2023)
Like-named read-outs stand apart in the source and are kept apart here.

Assays:
human plasma kallikrein = human plasma kallikrein (Homo sapiens (Human), UniProt P03952); assay: Kallikrein inhibition assay (FLINT) utilizing a quenched AMC peptide substrate; assay type: biochemical; settings: 30 min preincubation, kinetic reads over 30 min, Z-Gly-Pro-Arg-AMC substrate 50 μM; read-out: Kallikrein Kin Inh IC50
human plasma kallikrein, sequence (P03952 391-638): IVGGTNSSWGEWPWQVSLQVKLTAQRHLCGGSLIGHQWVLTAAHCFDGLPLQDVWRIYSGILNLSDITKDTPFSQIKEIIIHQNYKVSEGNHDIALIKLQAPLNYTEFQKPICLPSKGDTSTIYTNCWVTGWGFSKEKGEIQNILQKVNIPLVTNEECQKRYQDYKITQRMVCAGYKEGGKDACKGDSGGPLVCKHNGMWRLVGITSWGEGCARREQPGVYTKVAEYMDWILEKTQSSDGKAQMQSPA
human plasma kallikrein, sequence (P03952 20-390 partner): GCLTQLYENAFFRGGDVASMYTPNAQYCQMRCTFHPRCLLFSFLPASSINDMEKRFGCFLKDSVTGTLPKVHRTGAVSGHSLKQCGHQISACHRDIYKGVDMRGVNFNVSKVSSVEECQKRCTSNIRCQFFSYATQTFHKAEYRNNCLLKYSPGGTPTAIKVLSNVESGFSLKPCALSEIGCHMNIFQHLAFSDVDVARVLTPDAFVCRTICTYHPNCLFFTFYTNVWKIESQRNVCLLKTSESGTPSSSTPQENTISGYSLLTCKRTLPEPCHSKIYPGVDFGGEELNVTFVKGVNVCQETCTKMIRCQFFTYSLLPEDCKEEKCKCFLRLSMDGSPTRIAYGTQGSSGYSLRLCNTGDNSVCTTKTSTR
Procedure, shortened: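 Enzyme (2 nM final) pre-incubated 30 min at room temperature with compound (11-point, 3-fold, top 1 μM, 2% DMSO), then 50 μM Z-Gly-Pro-Arg-AMC added in Tris pH 7.5 buffer. Kinetic fluorescence 340/440 nm every 5 min over 30 min; IC50 from 4-parameter logistic fit.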

Factor XIa = Factor XIa (Homo sapiens (Human), UniProt P03951); assay: Factor XIa inhibition assay (FLINT) utilizing a fluorophore-quencher pair peptide substrate; assay type: biochemical; settings: 30 min preincubation, kinetic reads over 30 min, read-out: FXIa Kin Inh IC50
Factor XIa, sequence (P03951 388-625): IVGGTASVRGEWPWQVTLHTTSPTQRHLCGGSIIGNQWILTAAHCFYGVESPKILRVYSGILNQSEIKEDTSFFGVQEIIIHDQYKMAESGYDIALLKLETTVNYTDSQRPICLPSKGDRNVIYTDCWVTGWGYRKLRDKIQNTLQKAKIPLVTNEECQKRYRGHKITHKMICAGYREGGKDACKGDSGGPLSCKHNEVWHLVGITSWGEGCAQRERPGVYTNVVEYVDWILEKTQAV
Factor XIa, sequence (P03951 19-387 partner): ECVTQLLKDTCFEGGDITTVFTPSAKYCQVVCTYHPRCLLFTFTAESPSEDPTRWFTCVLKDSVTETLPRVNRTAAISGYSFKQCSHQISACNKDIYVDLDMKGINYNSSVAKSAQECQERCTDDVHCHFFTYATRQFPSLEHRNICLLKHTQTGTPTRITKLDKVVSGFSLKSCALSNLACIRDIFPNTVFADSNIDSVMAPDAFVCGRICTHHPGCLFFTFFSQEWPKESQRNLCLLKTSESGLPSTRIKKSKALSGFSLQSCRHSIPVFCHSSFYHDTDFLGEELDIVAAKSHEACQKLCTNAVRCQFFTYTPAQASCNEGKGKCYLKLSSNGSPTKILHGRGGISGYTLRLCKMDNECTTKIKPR
Procedure, shortened: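 FXIa ([…]) preincubated 30 min with compound (11-point 3-fold dilution, top 100 nM, 2% DMSO), then 15 μM quenched FXI Arg146-based peptide added; Tris pH 7.5, CaCl2, BSA, CHAPS. Fluorescence 485/520 nm read kinetically every 5 min over 30 min at RT; IC50 by 4-parameter fit.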

[1] = 5Fam-[…]-K5Tamra substrate 15 μM
[2] = 5Fam-KLTRAETV-K5Tamra substrate 15 μM

Compound | IC50 (human plasma kallikrein) [nM] | IC50 (Factor XIa; [1]) [nM] | IC50 (Factor XIa; [2]) [nM]
Nc1ccn(-c2nccc(-c3cnc([C@H]4CC[C@@H]5CC(c6c(-n7cnnn7)ccc(Cl)c6F)=CC(=O)N54)[nH]3)c2F)n1 (single isomer, unassigned) [Example 63] | 6.2 | 6.9 | –
C[C@H](Oc1nccc(-c2cnc([C@@H]3CC[C@@H]4CC(c5c(-n6cnnn6)ccc(Cl)c5F)=CC(=O)N43)[nH]2)c1F)c1nnco1 (relative stereo) [Example 128, (3S*,8aR*)-3-(5-(2-((S*)-1-(1,3,4-oxadiazol-2-yl)ethoxy)-3-fluoropyridin-4-yl)-1H-imidazol-2-yl)-7-(3-chloro-2-fluoro-6-(1H-tetrazol-1-yl)phenyl)-2,3,8,8a-tetrahydroindolizin-5(1H)-one] | 12.8 | 6.1 | –
CN(C)c1ccccc1-c1c[nH]c([C@@H]2CCC3CC(c4c(-n5cnnn5)ccc(Cl)c4F)=CC(=O)N32)n1 (stereo partly drawn) [Example 289, (3S)-7-(3-Chloro-2-fluoro-6-(1H-tetrazol-1-yl)phenyl)-3-(4-(2-(dimethylamino)phenyl)-1H-imidazol-2-yl)-2,3,8,8a-tetrahydroindolizin-5(1H)-one] | 492 | > 200 | –
N#CCc1nccc(-c2c[nH]c([C@@H]3CC[C@@H]4CC(c5c(-n6cnnn6)ccc(Cl)c5F)=CC(=O)N43)n2)c1F [Example 176, 2-(4-(2-((3S,8aR)-7-(3-chloro-2-fluoro-6-(1H-tetrazol-1-yl)phenyl)-5-oxo-1,2,3,5,8,8a-hexahydroindolizin-3-yl)-1H-imidazol-4-yl)-3-fluoropyridin-2-yl)acetonitrile] | 28.5 | – | 4
O=C(Nc1ccncc1-c1c[nH]c([C@@H]2CC[C@H]3CC(c4c(-n5cnnn5)ccc(Cl)c4F)=CC(=O)N32)n1)C1CC1 [Example 267, N-[3-[2-[(3S,8aS)-7-[3-Chloro-2-fluoro-6-(tetrazol-1-yl)phenyl]-5-oxo-2,3,8,8a-tetrahydro-1H-indolizin-3-yl]-1H-imidazol-4-yl]-4-pyridyl]cyclopropanecarboxamide] | 9 | – | 1
O=C1C=C(c2c(-n3cnnn3)ccc(Cl)c2F)C[C@H]2CC[C@@H](c3ncc(-c4cc(F)ncc4Cl)[nH]3)N12 [Example 371, (3S,8aR)-7-(3-chloro-2-fluoro-6-(1H-tetrazol-1-yl)phenyl)-3-(5-(5-chloro-2-fluoropyridin-4-yl)-1H-imidazol-2-yl)-2,3,8,8a-tetrahydroindolizin-5(1H)-one] | 56.5 | – | 36.3
NC(=O)c1cc(-c2cnc([C@@H]3CC[C@@H]4CC(c5c(-n6cnnn6)ccc(Cl)c5F)=CC(=O)N43)[nH]2)cs1 [Example 234, 4 (2-((3S,8aR)-7-(3-Chloro-2-fluoro-6-(1H-tetrazol-1-yl)phenyl)-5-oxo-1,2,3,5,8,8a-hexahydroindolizin-3-yl)-1H-imidazol-5-yl)thiophene-2-carboxamide] | 0.6 | – | 1
O=C1Nc2ccc(-c3cnc([C@@H]4CC[C@@H]5CC(c6c(-n7cnnn7)ccc(Cl)c6F)=CC(=O)N54)[nH]3)c(F)c2CO1 (single isomer, unassigned) [Example 118, 6-(24(3*S,8a*R)-7-(3-chloro-2-fluoro-6-(1H-tetrazol-1-yl)phenyl)-5-oxo-1,2,3,5,8,8a-hexahydroindolizin-3-yl)-1H-imidazol-5-yl)-5-fluoro-1,4-dihydro-2H-benzo[d][1,3]oxazin-2-one] | 1.7 | – | 0.4
CC(=O)N[C@H](C)c1ccc(-c2[nH]c([C@@H]3CCC4CC(c5c(-n6cnnn6)ccc(Cl)c5F)=CC(=O)N43)nc2F)cc1 (stereo partly drawn) [Example 11, N-[(1R)-1-[4-[2-[(3S)-7-[3-Chloro-2-fluoro-6-(tetrazol-1-yl)phenyl]-5-oxo-2,3,8,8a-tetrahydro-1H-indolizin-3-yl]-4-fluoro-1H imidazol-5-yl]phenyl]ethyl]acetamide] | 30.5 | – | 11.4
C[C@H](Oc1nccc(-c2cnc([C@@H]3CC[C@@H]4CC(c5c(-n6cnnn6)ccc(Cl)c5F)=CC(=O)N43)[nH]2)c1F)c1ncco1 (single isomer, unassigned) [Example 142, (3*S,8a*R)-7-(3-chloro-2-fluoro-6-(1H-tetrazol-1-yl)phenyl)-3-(5-(3-fluoro-2-((*S)-1-(oxazol-2-yl)ethoxy)pyridin-4-yl)-1H-imidazol-2-yl)-2,3,8,8a-tetrahydroindolizin-5(1H)-one] | 10.7 | – | 6.2
O=C(O)c1ccc(-c2cnc([C@@H]3CCC4CC(c5c(-n6cnnn6)ccc(Cl)c5F)=CC(=O)N43)[nH]2)cc1F (stereo partly drawn) [Example 342, 4-[2-[(3S)-7-[3-Chloro-2-fluoro-6-(tetrazol-1-yl)phenyl]-5-oxo-2,3,8,8a-tetrahydro-1H-indolizin-3-yl]-1H-imidazol-4-yl]-2-fluoro-benzoic acid] | 405 | – | 22.6
O=C1C=C(c2c(-n3cnnn3)ccc(Cl)c2F)C[C@H]2CC[C@@H](c3ncc(-c4ccnc(C(F)(F)CO)c4F)[nH]3)N12 (relative stereo) [Example 160, (3*S,8aR)-7-(3-chloro-2-fluoro-6-(1H-tetrazol-1-yl)phenyl)-3-(5-(2-(1,1-difluoro-2-hydroxyethyl)-3-fluoropyridin-4-yl)-1H-imidazol-2-yl)-2,3,8,8a-tetrahydroindolizin-5(1H)-one] | 27.8 | 8.4 | –
COc1c(-c2cnc(C3CC[C@H]4CC(c5c(-n6cnnn6)ccc(Cl)c5F)=CC(=O)N34)[nH]2)ccnc1N (stereo in doubt) [Example 382, (3R,8aS)-3-(5-(2-amino-3-methoxypyridin-4-yl)-1H-imidazol-2-yl)-7-(3-chloro-2-fluoro-6-(1H-tetrazol-1-yl)phenyl)-2,3,8,8a-tetrahydroindolizin-5(1H)-one] | 27.7 | – | 1.4
NC(=O)c1ccc(-c2c[nH]c([C@@H]3CC[C@H]4CC(c5c(-n6cc(C(F)(F)F)nn6)ccc(Cl)c5F)=CC(=O)N43)n2)s1 (single isomer, unassigned) [Example 221] | 7.7 | – | 2.3
CC1(C)C[C@@H](c2ncc(-c3ccc(N)nc3F)[nH]2)N2C(=O)C=C(c3c(-n4cnnn4)ccc(Cl)c3F)C[C@H]21 (relative stereo) [Example 337, (3S,8aS)-3-(5-(6-Amino-2-fluoropyridin-3-yl)-1H-imidazol-2-yl)-7-(3-chloro-2-fluoro-6-(1H-tetrazol-1-yl)phenyl)-1,1-dimethyl-2,3,8,8a-tetrahydroindolizin-5(1H)-one] | 12.7 | 1.5 | –
CC(C)(O)COc1nccc(-c2c[nH]c([C@@H]3CC[C@@H]4CC(c5c(-n6cc(C(F)(F)F)nn6)ccc(Cl)c5F)=CC(=O)N43)n2)c1F [Example 191, (3S,8aR)-7-(3-Chloro-2-fluoro-6-(4-(trifluoromethyl)-1H-1,2,3-triazol-1-yl)phenyl)-3-(4-(3-fluoro-2-(2-hydroxy-2-methylpropoxy)pyridin-4-yl)-1H-imidazol-2-yl)-2,3,8,8a-tetrahydroindolizin-5(1H)-one] | 34.3 | 3.8 | –
Nc1ccc(-c2cnc([C@@H]3CC[C@@H]4CC(c5c(-n6cnnn6)ccc(Cl)c5F)=CC(=O)N43)[nH]2)c(Cl)n1 [Example 354, (3S,8aR)-3-[5-(6-amino-2-chloro-3-pyridyl)-1H-imidazol-2-yl]-7-[3-chloro-2-fluoro-6-(tetrazol-1-yl)phenyl]-2,3,8,8a-tetrahydro-1H-indolizin-5-one] | 2.6 | – | 0.2
